Read-outs that look alike come from different tables or passages of the source.
Columns and labels:
morphine-treated rats = assay: Gastric emptying and gastrointestinal transit in model of opioid-delayed gastric emptying; assay type: in vivo, rat (Sprague-Dawley); settings: 3 mg/kg s.c.
From the text: 7. The Effect of Compounds of the Invention on Gastric Emptying and Gastrointestinal Transit in a Model of Opioid-Delayed Gastric Emptying
Opioid analgesics, such as morphine, are well known to delay gastrointestinal transit which is an important side-effect for this class of drugs. The clinical term for this syndrome is opioid bowel dysfunction (OBD). Importantly, patients recovering from abdominal surgery experience post-operative ileus that is further exacerbated by concomitant opioid therapy for post-surgical pain.
• 1. […] Methods • 1. Rats (male, Sprague-Dawley, 250-300 g) are implanted with jugular vein catheters to accommodate dosing of test articles. • 2. Overnight-fasted rats are administered morphine (3 mg/kg s.c.). • 3. […] Radioactivity (^99mTc) in each tissue isolate is measured as a means of measuring the transit of the meal. Results

[1] = tested on: gastric emptying in fasted rats; assay: Gastric emptying in fasted rats (phenol red methylcellulose meal); assay type: in vivo, rat (Wistar)
Protocol: To examine the effects of compounds of the invention in a model for gastroparesis, compounds were evaluated for possible effects on gastric emptying in fasted rats.
GHRP-6 and test samples were dissolved in vehicle of 9% HPBCD/0.9% NaCl. Immediately following oral administration of methylcellulose (2%) containing phenol red (0.05%) (2 mL/rat), test substances or vehicle (9% HPBCD/0.9% NaCl) were each administered intravenously (i.v.) at a dosing volume of 5 mL/kg.
Male Wistar rats were provided by LASCO (A Charles River Licensee Corporation, Taiwan). Space allocation for 6 animals was 45×23×15 cm. Animals were housed in APEC® cages and maintained in a controlled temperature (22° C.-24° C.) and humidity (60%-80%) environment with 12 h light, 12 h dark cycles for at least one week in the laboratory prior to being used. Free access to standard lab chow for rats (Lab Diet, Rodent Diet, PMI Nutrition International, USA) and tap water was granted. All aspects of this work including housing, experimentation and disposal of animals were performed in general accordance with the Guide for the Care and Use of Laboratory Animals (National Academy Press, Washington, D.C., 1996).
Test substances were each administered intravenously to a group of 5 O/N-fasted Wistar derived male rats weighing 200±20 g immediately after methylcellulose (2%) containing phenol red (0.05%) was administered orally at 2 mL/animal. […] Following protein precipitation by 20% trichloroacetic acid (0.5 mL) and re-alkalization of the supernatant with 0.1 N NaOH, total phenol red remaining in the stomach was determined by a colorimetric method at 560 nm. A 30 percent or more (≧30%) increase in gastric emptying, detected as the decrease in phenol red concentration in the stomach relative to the vehicle control group, is considered significant.
• 1. […] Total phenol red remaining in the stomach was quantified by a colorimetric method at 560 nm. • 5. A >30% increase in gastric emptying, detected based on the phenol red concentration in comparison to the control group, is considered significant. […]

[2] = target: T1, human ghrelin receptor (hGHS-R1a) (Homo sapiens, UniProt Q92847); settings: Table 4; functional (agonist) activity at human ghrelin receptor; TFA salts unless otherwise noted
T1 sequence (Q92847 whole entry): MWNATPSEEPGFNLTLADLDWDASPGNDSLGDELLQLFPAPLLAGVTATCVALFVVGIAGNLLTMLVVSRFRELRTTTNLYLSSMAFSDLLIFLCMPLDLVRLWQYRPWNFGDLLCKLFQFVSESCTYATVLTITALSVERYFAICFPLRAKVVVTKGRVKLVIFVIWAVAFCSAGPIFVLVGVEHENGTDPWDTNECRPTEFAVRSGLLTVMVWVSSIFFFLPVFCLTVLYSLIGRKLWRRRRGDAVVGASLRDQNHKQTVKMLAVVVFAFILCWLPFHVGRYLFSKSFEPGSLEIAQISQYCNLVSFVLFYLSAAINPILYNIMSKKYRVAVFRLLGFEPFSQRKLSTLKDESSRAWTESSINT
From the text: (§1) B. Aequorin Functional Assay (Ghrelin Receptor)
(§2) This cell line is typically constructed by transfection of the human ghrelin receptor into CHO-K1 cells co-expressing Gα16 and the mitochondrially targeted Aequorin (Ref #ES-WT-A5). • 1. […] Assay buffer: DMEM (Dulbecco's Modified Eagles Medium) containing 0.1% BSA (bovine serum albumin; pH 7.0). • 3. Coelenterazine (Molecular Probes, Leiden, The Netherlands). Final test concentrations (N=8) for compounds of the invention: 10, 1, 0.3, 0.1, 0.03, 0.01, 0.003, 0.001 μM. Compound Handling
(§3) Assay plates were then prepared by appropriate dilution in DMEM medium containing 0.1% BSA. Under these conditions, the maximal final DMSO concentration in the assay was <0.6%.
(§4) AequoScreen™ cells were collected from culture plates with Ca^2+ and Mg^2+-free phosphate buffered saline (PBS) supplemented with 5 mM EDTA, pelleted for 2 min at 1000×g, re-suspended in DMEM—Ham's F12 containing 0.1% BSA at a density of 5×10^6 cells/mL, and incubated O/N at rt in the presence of 5 μM coelenterazinc. After loading, cells were diluted with assay buffer to a concentration of 5×10^5 cells/mL.
(§5) For agonist testing, 50 μL of the cell suspension was mixed with 50 μL of the appropriate concentration of test compound or ghrelin (reference agonist) in 96-well plates (duplicate samples). Ghrelin (reference agonist) was tested at several concentrations concurrently with the test compounds in order to validate the experiment. The emission of light resulting from receptor activation in response to ghrelin or test compounds was recorded using the Hamamatsu FDSS 6000 reader (Hamamatsu Photonics K.K., Japan).
Analysis and Expression of Results
(§6) Results were expressed as Relative Light Units (RLU). […] EC50, Hill slope and % Emax values are reported.
(§7) Key Aspects of Method • 1. Assay performed on CHO-K1 cells expressing the transfected, cloned human ghrelin receptor (hGHS-R1a) and Gα16. • 2. Suspended cells incubated O/N with coelenterazine. • 3. Stimulation of hGHS-R1a activates Gα16, causing intercellular Ca2+ release which ultimately leads to the oxidation of coelenterazine and the emission of a quantitative luminescent signal. • 4. Ghrelin was used as the positive control. • 5.

[3] = target: T2, human growth hormone secretagogue receptor (hGHS-R1a) (Homo sapiens, UniProt Q92847); assay: Competitive radioligand binding assay (ghrelin receptor), [125I]-ghrelin displacement
T2 construct: purchased PerkinElmer BioSignal #RBHGHSM, lot#1887; host or cells: HEK-293, stably transfected
T2 sequence (Q92847 whole entry): as above
Protocol: The competitive binding assay at the human growth hormone secretagogue receptor (hGHS-R1a) was carried out analogously to assays described in the literature.
Multiscreen Harvest plates-GF/C (Millipore, #MAHFC1H60) • 4. […] Bottom seal (Millipore, #MATAH0P00) • 7. […] Binding Buffer: 25 mM Hepes (pH 7.4), 1 mM CaCl2, 5 mM MgCl2, 2.5 mM EDTA, 0.4% BSA Assay Volumes
Competition experiments were performed in a 300 μl filtration assay format. • 1. 220 μL of membranes diluted in binding buffer • 2. 40 μL of compound diluted in binding buffer • 3. […] Compound Handling
Compounds were provided frozen on dry ice at a stock concentration of 10 mM diluted in 100% DMSO and stored at −80° C. until the day of testing. On the test day, compounds were allowed to thaw at rt O/N and then diluted in assay buffer according to the desired test concentrations.
Plates were sealed with TopSeal-A, vortexed gently and incubated at rt for 30 min. The reaction was arrested by filtering samples through Multiscreen Harvest plates (pre-soaked in 0.5% polyethyleneimine) using a Tomtec Harvester, washed 9 times with 500 μL of cold 50 mM Tris-HCl (pH 7.4, 4° C.), and then plates were air-dried in a fumehood for 30 min. A bottom seal was applied to the plates prior to the addition of 25 μL of MicroScint-0 to each well. […] Results were expressed as counts per minute (cpm).
Data were analyzed by GraphPad Prism (GraphPad Software, San Diego, Calif.) using a variable slope non-linear regression analysis.
Compound structures for Tables 3A, 3B and 3D are presented with the various groups as defined for the general structure of formula I. For Tables 3B and 3D, in all entries, m, n and p are 0; X, Z1 and Z2 are each NH. For Table 3B, R1 is H for all entries. The tethers (T) are illustrated with the bonding to X and Z2 as indicated. The compounds themselves are shown for Table 3C.
• 1. […] Key Aspects of Method • 1. […] Results

[4] = target: T1, human ghrelin receptor (hGHS-R1a); assay: cell-based
From the text: as §1, §2, §3, §4, §5
Analysis and Expression of Results
as §6, §7

[5] = from CCC[C@@H](C(=O)N(C)[C@H](C)C(=O)N[C@H](Cc1ccccc1)C(=O)O)N(C[C@@H](C)Oc1ccccc1CCCN)C(=O)OC(C)(C)C; amide bond; DEPBT; THF; 25.0 mM; 25.0 °C; 16.0 h
[6] = Table 3C, binding activity at the human ghrelin receptor, class symbols, read-out: Ki
[7] = Table 4, binding at human ghrelin receptor, TFA salts unless otherwise noted, read-out: Ki
[8] = Table 3B, binding at human ghrelin receptor, [125I]-ghrelin displacement, read-out: Ki
[9] = binding activity at the human ghrelin receptor, [125I]-ghrelin displacement, hGHS-R1a/HEK-293 membranes, read-out: Ki

Structure (SMILES) | Ki [3, 7] [nM] | EC50 [4] [nM] | Ki [3, 9] [nM] | also measured
CN1CC[C@]23c4c5ccc(O)c4O[C@H]2[C@@H](O)C=C[C@H]3[C@H]1C5 [Morphine] | – | – | – | gastric emptying and intestinal transit (morphine-treated rats): significantly delayed gastric emptying and intestinal transit
CCN(CC)CCNC(=O)c1cc(Cl)c(N)cc1OC [metoclopramide, Metoclopramide, reference compound] | – | – | – | gastric emptying of a solid meal in naïve rat ([1]; i.v. immediately after meal, 15 min): significant gastric emptying
C[C@H]1NC(=O)C2(CCCC2)NCCOc2ccccc2C=CCNC(=O)[C@H](Cc2cccc(Cl)c2)NC1=O (stereo in doubt) [compound 351] | 10 to 100 | – | – | EC50 [2]: 1 to 100 nM; Ki [3, 6]: 10 to 100 nM
CCC(C)C1NCCOc2ccc(C(=O)O)cc2CCCNC(=O)C(Cc2ccccc2)NC(=O)C(C)N(C)C1=O (stereo not shown) [compound 197] | 100 to 1000 | > 1000 | – | Ki ([3]; [125I]-ghrelin displacement, hGHS-R1a HEK-293 membranes, read-out: Binding Activity at the Human Ghrelin Receptor (Ki)): 100 to 10000 nM
CC1C(=O)NC(Cc2ccc(F)cc2)C(=O)NCCCc2cc(NS(C)(=O)=O)ccc2OCCNC(C2CC2)C(=O)N1C (stereo not shown) [compound 374] | 10 to 100 | 1 to 100 | – | Ki [3, 8]: < 100 nM
CC(C)CC1NCCOc2ccccc2C=CCNC(=O)C(CC(C)C)NC(=O)C2(CCCC2)NC1=O (stereo not shown) [compound 47] | 100 to 1000 | 1 to 100 | 100 to 10000 | –
CCC(C)C1NCCOc2ccc(F)cc2CCCNC(=O)C(Cc2cccc(Cl)c2)NC(=O)C2(CCCC2)NC1=O (stereo not shown) [compound 382] | 10 to 100 | 100 to 1000 | – | Ki [3, 8]: < 100 nM
CCC[C@H]1C(=O)N(C)[C@H](C)C(=O)N[C@H](Cc2ccccc2)C(=O)NCCCc2ccccc2O[C@H](C)CN1C(=O)OC(C)(C)C | – | – | – | ring closure, yield of all isomers [5]: 80%
CC(C)C1NCCOc2ccccc2C=CCNC(=O)C(Cc2ccccc2)NC(=O)C2(CCOCC2)NC1=O (stereo not shown) [compound 140] | 100 to 1000 | 100 to 1000 | 100 to 10000 | –
CCC(C)C1NCCOc2ccccc2C=CCNC(=O)C(Cc2ccccc2)NC(=O)C(C)N(C)C1=O (stereo not shown) [compound 40] | 0.1 to 10 | 1 to 100 | 0.1 to 10 | –
CCC(C)C1NCCOc2cccnc2CCCNC(=O)C(Cc2ccccc2)NC(=O)C(C)N(C)C1=O (stereo not shown) [compound 177] | 10 to 100 | 1 to 100 | 10 to 100 | –
CCC(C)C1NCCOc2ccccc2CCCNC(=O)C(Cc2ccc(Cl)cc2)NC(=O)C(C)N(C)C1=O (stereo not shown) [compound 25] | – | – | – | EC50 [2]: 1 to 100 nM; gastric emptying ([1]; 30 μg/kg): demonstrated gastric emptying; increase in gastric emptying relative to the vehicle control group ([1]; 100 μg/kg i.v., fasted rats, 15 min): 39%
CCC(C)C1NCCOc2ccccc2CCCNC(=O)C(CC(C)C)NC(=O)C(C)N(C)C1=O (stereo not shown) [compound 176] | 10 to 100 | 1 to 100 | 10 to 100 | –
O=C1NC/C=C/c2ccccc2OCCNC2(CCCC2)C(=O)NC2(CCCC2)C(=O)N[C@H]1Cc1ccccc1 [compound 18] | 10 to 100 | – | 10 to 100 | EC50 [2]: 1 to 100 nM; Ki [3, 6]: 10 to 100 nM
CCCC1NCCOc2ccccc2CCCNC(=O)C(Cc2ccc(O)cc2)NC(=O)CN(C)C1=O (stereo not shown) [compound 7] | 100 to 1000 | 1 to 100 | 100 to 10000 | –
CCC(C)C1NCCOCC=CCCNC(=O)C(Cc2ccccc2)NC(=O)C(C)N(C)C1=O (stereo not shown) [compound 186] | 100 to 1000 | 100 to 1000 | 100 to 10000 | –
CCCCC1NCCOc2ccccc2CCCNC(=O)C(Cc2ccccc2)NC(=O)CN(C)C1=O (stereo not shown) [Compound 1] | 10 to 100 | 100 to 1000 | 10 to 100 | –
CCC(C)C1NCCOc2ccccc2C2CC2CNC(=O)C(Cc2cccc(Cl)c2)NC(=O)C2(CCCC2)NC1=O (stereo not shown) [compound 388] | 0.1 to 10 | 1 to 100 | – | Ki [3, 8]: 0.1 to 10 nM

— patent USRE42013E1, “Macrocyclic modulators of the ghrelin receptor” (Tranzyme Pharma Inc., priority 2003, dated 2010)
